Assay [1] has as its target T1, Bevacizumab (Homo sapiens, UniProt P01857).
T1 construct: fused on or other part: humanised anti-VEGF-A VH domain N-terminal of the gamma-1 constant region (engineered, no UniProt entry)
Put plainly: Microtiter plate chromatography of resins, Bevacizumab whole IgG (bound, yield, selectivity). Format: binding, humanized. The settings on record: for Bevacizumab IgG Bound (%): fraction of whole IgG Bevacizumab bound to resin; for Bevacizumab IgG Yield (%): mass of whole IgG Bevacizumab eluted / mass injected. The procedure:
(§1) Resins were assessed in packed mode by microtiter plate chromatography. For each column, approximately 30 μl of resin were transferred to a 384-well filter plate and sealed with appropriate top frits.
(§2) Columns were equilibrated with 6.7 column volumes (cv) of phosphate buffered saline (0.15 M NaCl, 20 mM sodium phosphate, pH 7.3; PBS) prior to injection. Either 3.3 cv of whole IgGs dissolved at 0.75 mg ml^−1, Fab or Fc fragments dissolved at 0.25 mg ml^−1 (all three in PBS) or host cell proteins (HCP) were injected onto columns. Antibody fragments of Bevacizumab (Fab and Fc) were prepared by cleavage of whole IgG with papain protease (3) according to the protocol of the manufacturer. […] Volumes transferred were spun through columns at 50 g for 1-2 min. During injection of samples, acceleration was reduced to 10 g and centrifugation time increased to 5-10 min. Effluent fractions were collected in 384-well plates and concentrations of protein analyzed by Bradford assay. Protein masses mi, mft and me (see below) were calculated as the product of fraction volume and measured protein concentration.
(§3) The fraction of ‘bound’ protein was calculated as the difference between the total mass of protein injected mi and the mass of protein detected in the flowthrough mft, divided by the total mass of protein injected.
(§4) The ‘yield’ of protein was calculated as the mass of protein eluted me, divided by the mass of protein injected mi.
(§5) The ‘selectivity’ of resins was calculated as the fraction of bound antibody BAb, divided by the fraction of bound host cell proteins BHCP.
(§6) the fraction of ‘bound’ protein and the ‘yield’ of protein were calculated for each resin based on data for whole IgG-antibodies. In the case of Bevacizumab fragments and host cell proteins, only the fraction of ‘bound’ protein is given. Selectivity of resins was calculated from data for Bevacizumab Whole IgG and host cell proteins. Due to limited experimental precision, selectivity was truncated beyond values of 10.

The test system of assay [2] is Bevacizumab. The assay is described as above. Format: binding, humanized. The procedure: as §1, §2, §3, §4, §5, §6
The test system of the next assay is Tocilizumab. Put plainly: Microtiter plate chromatography of resins, Tocilizumab (bound, yield). Format: binding, humanized. The procedure:
as §1, §2, §3, §4, §6

A further assay concerns Palivizumab. Put plainly: Microtiter plate chromatography of resins, Palivizumab (bound, yield). Format: binding, humanized. The procedure: as §1, §2, §3, §4, §6
Assay [3] concerns human poly-IgG (h-poly-IgG). Put plainly: Microtiter plate chromatography of resins, human poly-IgG (bound, yield). Format: binding. The procedure:
as §1, §2, §3, §4, §6

The next assay has as its system host cell proteins (HCP). Put plainly: Microtiter plate chromatography of resins, host cell proteins (bound). Format: binding, CHO. The settings on record: host cell proteins. The procedure: Flowthrough from protein A chromatography (referred to as host cell proteins) was derived from the supernatant of antibody-producing CHO cell culture in serum-free medium.
as §1, §2, §3, §6

Where [4] appears, read: fraction of bound Bevacizumab whole IgG / fraction of bound HCP, truncated beyond values of 10.

Molecules are shown by their SMILES. Read-outs that look alike come from different tables or passages of the source.

As to `COc1ccc(NC(=O)c2cc3ncccn3n2)cc1C(=O)NCCCN` [Ligand L56, 2-Methoxy-5-(pyrazolo[1,5-a]pyrimidin-2-ylcarboxamido)benzoic acid (3-amino-1-propyl)amide], at Bevacizumab [1], the “Bevacizumab IgG Bound (%)” value is reported as 100% and the “Bevacizumab IgG Yield (%)” value amounted to 95%. In the assay with Bevacizumab [2], this compound gave a Selectivity of 4.9. In the assay with Tocilizumab, the “Tocilizumab Bound (%)” value turned out to be 95% and the “Tocilizumab Yield (%)” value was determined as 95%. In the assay on Palivizumab, the “Palivizumab Bound (%)” value turned out to be 81% and the “Palivizumab Yield (%)” value is given as 79%. Further, in assay [3], the “h-poly-IgG Bound (%)” value was determined as 83% and the “h-poly-IgG Yield (%)” value is listed as 83%. Also, the “HCP Bound (%)” value in the assay on host cell proteins (HCP) is reported as 21%.
Consider `COc1ccc(NC(=O)c2cn3ccsc3n2)cc1C(=O)NCCCNC(=O)CC[C@H](N)C(=O)NCCCNC(=O)c1cc(NC(=O)c2cn3ccsc3n2)ccc1OC` [Ligand L64, (S)-1-Aminopropane-1,3-dicarboxylic acid bis{3-[5-(imidazo[2,1-b]thiazol-6-ylcarboxamido)-2-methoxyphenylcarboxamido]propyl}amide], for which, on Bevacizumab [1], the “Bevacizumab IgG Bound (%)” value was 100% and the “Bevacizumab IgG Yield (%)” value is given as 93%. The same compound registered a Selectivity in the assay with Bevacizumab [2] (setting [4]) of 2.8. For the same compound, in the assay on Tocilizumab, the “Tocilizumab Bound (%)” value turned out to be 99% and the “Tocilizumab Yield (%)” value came to 99%. Also, in assay [3], the “h-poly-IgG Bound (%)” value was 100% and the “h-poly-IgG Yield (%)” value is recorded as 97%. Also, the “HCP Bound (%)” value with host cell proteins (HCP) is recorded as 36%.
With `COc1ccc(NC(=O)c2cn3ccsc3n2)cc1C(=O)NCCOCCOCC(=O)NCCCC[C@H](NC(=O)COCCOCCNC(=O)c1cc(NC(=O)c2cn3ccsc3n2)ccc1OC)C(=O)NCCCN` [Ligand L50, (S)-2,6-Bis{8-[5-(Imidazo[2,1-b]thiazol-6-ylcarboxamido)-2-methoxyphenylcarboxamido]-3,6-dioxaoctanoylamido}hexanoic acid (3-amino-1-propyl)amide], on Bevacizumab [1], the “Bevacizumab IgG Bound (%)” value was 100% and the “Bevacizumab IgG Yield (%)” value came to 92%. The compound also returned a Selectivity in the assay with Bevacizumab [2] (setting [4]) of 6.9. In addition, in the assay on Tocilizumab, the “Tocilizumab Bound (%)” value is 100% and the “Tocilizumab Yield (%)” value was 100%. Further, in assay [3], the “h-poly-IgG Bound (%)” value is 91% and the “h-poly-IgG Yield (%)” value was determined as 91%. Besides, the “HCP Bound (%)” value in the assay on host cell proteins (HCP) is 15%.
With `COc1ccc(NC(=O)c2cn3ccsc3n2)cc1C(=O)NCCCC[C@H](NC(=O)c1cc(NC(=O)c2cn3ccsc3n2)ccc1OC)C(=O)NCCCN` [Ligand L49, (S)-2,6-Bis[5-(Imidazo[2,1-b]thiazol-6-ylcarboxamido)-2-methoxyphenylcarboxamido]hexanoic acid (3-amino-1-propyl)amide], at Bevacizumab [1], the “Bevacizumab IgG Bound (%)” value is listed as 100% and the “Bevacizumab IgG Yield (%)” value is given as 88%. For the same compound, the Selectivity with Bevacizumab [2] (setting [4]) was 6.1. In the assay on Tocilizumab, the “Tocilizumab Bound (%)” value was determined as 99% and the “Tocilizumab Yield (%)” value came out at 97%. Further, in assay [3], the “h-poly-IgG Bound (%)” value was 88% and the “h-poly-IgG Yield (%)” value was 88%. Also, in the assay with host cell proteins (HCP), the “HCP Bound (%)” value is listed as 17%.
As for `COc1ccc(NC(=O)c2nn(C)c3ccccc23)cc1C(=O)NCCOCCOCC(=O)NCCCN` [Ligand L60, 8-[2-Methoxy-5-(1-methylindazol-3-ylcarboxamido)phenylcarboxamido]-3,6-dioxaoctanoic acid (3-amino-1-propyl)amide], at Bevacizumab [1], the “Bevacizumab IgG Bound (%)” value is reported as 100% and the “Bevacizumab IgG Yield (%)” value was determined as 82%. Moreover, the Selectivity in the assay with Bevacizumab [2] is 3.3. In the assay with Tocilizumab, the “Tocilizumab Bound (%)” value is 93% and the “Tocilizumab Yield (%)” value is given as 93%. Besides, in assay [3], the “h-poly-IgG Bound (%)” value was found to be 95% and the “h-poly-IgG Yield (%)” value came out at 94%. In addition, in the assay with host cell proteins (HCP), the “HCP Bound (%)” value was determined as 30%.

For the origin of these results see US20130131321A1, “LIGANDS FOR ANTIBODY AND Fc-FUSION PROTEIN PURIFICATION BY AFFINITY CHROMATOGRAPHY” (GRAFFINITY PHARMACEUTICALS GMBH, priority 2010, published 2013).
